Reference: article PMC11650638, “In Vivo Activity Profiling of Biosynthetic Darobactin D22 against Critical Gram-Negative Pathogens” (ACS Infectious Diseases, 2024)
≈ marks a conversion by molar mass, not a printed value.

Columns and labels:
[1] = system: Acinetobacter baumannii ATCC17978; assay: microbe, parasite or virus in culture; type: cell-based
Experimental: (§1) MIC90 determination was performed
(§2) MIC against Clinical Isolates of E. coli.
(§3) Zebrafish Infection Model
(§4) carbenicillin (Carl Roth, Karlsruhe, Germany).3
(§5) Minimum inhibitory concentrations

[2] = system: Escherichia coli ATCC25922; design: method as in PMID 36308277, PMID 38093695; conditions: cited from earlier work
[3] = system: Acinetobacter baumannii DSM30008; design: method as in PMID 36308277, PMID 38093695; conditions: cited from earlier work
[4] = system: Pseudomonas aeruginosa PAO1; design: method as in PMID 36308277, PMID 38093695; conditions: cited from earlier work
[5] = system: Acinetobacter baumannii ATCC17978; assay: Zebrafish embryo model of A. baumannii infection; conditions: 10 mg/kg, caudal vein microinjection 3 hpi
[6] = system: Escherichia coli clinical isolates; assay: MIC against clinical isolates of E. coli (Statens Serum Institut, CLSI); type: cell-based
Experimental: as §1, §2, §3, §4, §5

Escherichia coli C175-94 = assay: Murine urinary tract infection model; type: in vivo, C3H/HeNHsd mice; conditions: positive control, BID, day 4
Experimental: One IV dosing arm at 5 mg/kg was included for comparison. Mice were treated for 3 days post-inoculation, and the bacterial burden was determined on day 4.
In vivo urinary tract infection model. The murine urinary tract infection model was conducted at Statens Serum Institut in Copenhagen, Denmark under the supervision of the Danish Animal Ethical […]
Bacterial challenge organism: The challenge organism was Escherichia coli C175-94 (serotype O8:K48:H4), a clinical isolate elaborating type 1 fimbriae, previously used for developing and validating the urinary tract infecti on model.7
Animals: Upon arrival to Statens Serum Institut animal facility, female C3H/HeNHsd mice 5 -6 weeks old (Envigo, Netherlands), were randomized to 8 mice per cage and acclimatized 1 week before experimental start. Bedding was from Tapvei and Enviro -Dri nesting material and cardboard houses (Bio-serv) was offered as enrichment. Mice had free access to domestic quality drinking water and food […]
Mice were monitored twice daily for clinical symptoms of infection or discomfort and euthanized if reaching humane endpoints specified in the ethical permission […]
Dickinson, cat. […] Colony counts of urine were determined immediately. […]
OD540nm of the supernatant was measured and the hemolytic % was calculated following the formula: (OD test compound – OD blank)-(OD positive

SMILES	MIC ([1]; ATCC17978, GFP-tagged A. baumannii ATCC17978) [µg/mL]	MIC ([1]; ATCC17978, WT A. baumannii ATCC17978) [µg/mL]	MIC E. coli [2] [µg/mL]	MIC A. baumannii [3] [µg/mL]	MIC P. aeruginosa [4] [µg/mL]	clearance of A. baumannii infection within zebrafish embryos [5]	MIC ([6]; ATCC25922, E. coli ATCC25922) [µg/mL]	MIC ([6]; E. coli 50639799) [µg/mL]	MIC ([6]; E. coli C175-94) [µg/mL]	MIC ([6]; E. coli DSA443) [µg/mL]	MIC ([6]; E. coli EC 106-09 (ESBL)) [µg/mL]	bacterial burden in urine, bladder, kidney (Escherichia coli C175-94)
N=C(N)NCCC[C@H](NC(=O)[C@H]1NC(=O)[C@H](CO)NC(=O)[C@H]2NC(=O)[C@H](CCC(N)=O)NC(=O)[C@@H](N)Cc3c[nH]c4c(cccc34)O[C@@H]2c2c[nH]c3cc(ccc23)[C@@H]1CCCN)C(=O)N[C@@H](Cc1c[nH]c2ccccc12)C(=O)O [Darobactin D69]	1 (≈ 0.919 µM)	2 (≈ 1.84 µM)	1 (≈ 0.919 µM)	0.5 (≈ 0.459 µM)	1 (≈ 0.919 µM)	completely cleared						
CNC(C)C1CCC(N)C(OC2C(N)CC(N)C(OC3OCC(C)(O)C(NC)C3O)C2O)O1 (stereo not drawn) [Gentamicin, gentamicin]							0.5 to 1 (≈ 1.05 to 2.09 µM)	16 to 32 (≈ 33.5 to 67 µM)	2 (≈ 4.19 µM)	> 64	1 to 2 (≈ 2.09 to 4.19 µM)	reduction of bacterial burden below stasis level in all tissues
